Experimental findings from patent US11919887B2, “Substituted tetrahydrofurans as modulators of sodium channels” (Vertex Pharmaceuticals Incorporated, priority 2019, dated 2024) are described below.

One assay deals with human Nav 1.8 (Homo sapiens, UniProt Q9Y5Y9). Kind of assay: E-VIPR assay detecting and measuring Nav inhibition (HEK cells expressing truncated human Nav 1.8). It counts as cell-based. The note with it: in the Absence of Human Serum in the E-VIPR Assay. An excerpt: Sodium ion channels are voltage-dependent proteins that can be activated by inducing membrane voltage changes by applying electric fields. The electrical stimulation instrument and methods of use, referred to as E-VIPR, are described in International Publication No. WO 2002/008748 A3 and C.-J. Huang et al. Characterization of voltage-gated sodium channel blockers by electrical stimulation and fluorescence detection of membrane potential, 24 Nature Biotech. 439-46 (2006), both of which are incorporated by reference in their entirety. The instrument comprises a microtiter plate handler, an optical system for exciting the coumarin dye while simultaneously recording the coumarin and oxonol emissions, a waveform generator, a current- or voltage-controlled amplifier, and parallel electrode pairs that are inserted into assay plate wells. Under integrated computer control, this instrument passes user-programmed electrical stimulus protocols to cells within the wells of the microtiter plate.
Sequence of human Nav 1.8 (Q9Y5Y9 whole entry, looked up, the tested form may be a part): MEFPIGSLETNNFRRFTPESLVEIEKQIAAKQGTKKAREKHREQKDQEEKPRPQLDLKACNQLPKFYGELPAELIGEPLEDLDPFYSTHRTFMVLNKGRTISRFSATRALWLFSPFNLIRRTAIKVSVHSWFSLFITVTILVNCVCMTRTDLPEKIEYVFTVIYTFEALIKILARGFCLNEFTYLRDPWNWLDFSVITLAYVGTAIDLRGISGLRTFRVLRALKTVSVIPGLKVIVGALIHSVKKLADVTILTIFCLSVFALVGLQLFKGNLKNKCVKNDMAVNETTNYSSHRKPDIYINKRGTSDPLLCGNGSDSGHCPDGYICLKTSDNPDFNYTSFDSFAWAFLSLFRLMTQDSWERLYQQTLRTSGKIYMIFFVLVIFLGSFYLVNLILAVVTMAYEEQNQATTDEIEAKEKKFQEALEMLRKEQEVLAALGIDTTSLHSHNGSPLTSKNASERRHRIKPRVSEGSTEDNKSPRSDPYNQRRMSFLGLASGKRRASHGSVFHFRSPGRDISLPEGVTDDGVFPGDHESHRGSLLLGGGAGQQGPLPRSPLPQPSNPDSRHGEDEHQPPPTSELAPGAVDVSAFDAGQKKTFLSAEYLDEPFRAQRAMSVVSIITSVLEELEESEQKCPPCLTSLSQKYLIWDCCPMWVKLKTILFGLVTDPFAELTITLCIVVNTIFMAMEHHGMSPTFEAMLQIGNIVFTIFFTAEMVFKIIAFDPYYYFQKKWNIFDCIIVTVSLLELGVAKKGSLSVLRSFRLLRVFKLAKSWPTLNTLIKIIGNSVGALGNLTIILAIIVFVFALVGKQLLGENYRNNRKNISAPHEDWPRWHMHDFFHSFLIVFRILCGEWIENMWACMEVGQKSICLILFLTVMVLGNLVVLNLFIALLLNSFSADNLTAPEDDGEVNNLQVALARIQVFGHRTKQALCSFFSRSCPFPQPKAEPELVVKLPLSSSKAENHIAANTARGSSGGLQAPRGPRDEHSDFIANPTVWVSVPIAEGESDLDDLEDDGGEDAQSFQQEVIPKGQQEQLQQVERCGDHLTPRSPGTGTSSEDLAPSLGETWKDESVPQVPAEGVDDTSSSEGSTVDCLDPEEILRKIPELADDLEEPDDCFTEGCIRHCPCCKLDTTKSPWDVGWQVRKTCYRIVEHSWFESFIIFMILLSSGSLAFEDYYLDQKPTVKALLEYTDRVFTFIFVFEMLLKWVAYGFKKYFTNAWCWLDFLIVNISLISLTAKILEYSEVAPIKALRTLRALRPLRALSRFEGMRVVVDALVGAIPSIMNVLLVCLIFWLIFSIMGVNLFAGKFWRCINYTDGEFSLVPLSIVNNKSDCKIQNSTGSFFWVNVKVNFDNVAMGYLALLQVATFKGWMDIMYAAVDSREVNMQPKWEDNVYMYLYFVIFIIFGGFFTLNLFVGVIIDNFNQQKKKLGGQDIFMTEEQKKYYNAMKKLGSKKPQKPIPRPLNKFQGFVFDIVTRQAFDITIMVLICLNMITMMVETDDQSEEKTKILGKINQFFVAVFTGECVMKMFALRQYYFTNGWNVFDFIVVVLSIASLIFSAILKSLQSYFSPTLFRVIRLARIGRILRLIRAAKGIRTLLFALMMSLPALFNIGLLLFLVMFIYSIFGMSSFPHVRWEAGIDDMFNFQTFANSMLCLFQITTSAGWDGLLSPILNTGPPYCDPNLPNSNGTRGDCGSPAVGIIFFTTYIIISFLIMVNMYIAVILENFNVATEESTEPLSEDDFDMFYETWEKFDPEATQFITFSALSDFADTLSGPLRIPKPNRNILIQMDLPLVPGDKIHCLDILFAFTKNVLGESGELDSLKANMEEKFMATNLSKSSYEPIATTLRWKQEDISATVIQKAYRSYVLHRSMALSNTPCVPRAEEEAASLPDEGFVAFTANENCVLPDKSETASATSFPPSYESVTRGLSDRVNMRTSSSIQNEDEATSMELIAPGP
16-20 hours prior to running the assay on E-VIPR, HEK cells expressing a truncated form of human Nav 1.8 with full channel activity were seeded into microtiter 384-well plates, pre-coated with matrigel, at a density of 25,000 cells per well. 2.5-5% KIR2.1 Bacmam virus was added to the final cell suspension before seeding into cell plates. HEK cells were grown in Dulbecco's Modified Eagle's Medium (DMEM) supplemented with 10% FBS (Fetal Bovine Serum, qualified; Sigma #F4135), 1% NEAA (Non-Essential Amino Acids, Gibco #11140), 1% HEPES (Gibco #15630), 1% Pen-Strep (Penicillin-Streptomycin; Gibco #15140) and 5 μg/ml Blasticidin (Gibco #R210-01). Cells were expanded in vented cap cell culture flasks, with 90-95% humidity and 5% CO2.
Human Serum (HS, Millipore #S1P1-01KL, or Sigma SLBR5469V and SLBR5470V as a 50%/50% mixture, for 25% assay final concentration)
Bath1 Buffer: • Sodium Chloride 160 mM (9.35 g/L), Potassium Chloride, 4.5 mM (0.335 g/L), Glucose 10 mM (1.8 g/L), Magnesium Chloride (Anhydrous) 1 mM (0.095 g/L), Calcium Chloride 2 mM (0.222 g/L), HEPES 10 mM (2.38 g/L) in water.
Na/TMA Cl Bath1 Buffer: • Sodium Chloride 96 mM (5.61 g/L), Potassium Chloride 4.5 mM (0.335 g/L), Tetramethylammonium (TMA)-Cl 64 mM (7.01 g/L), Glucose 10 mM (1.8 g/L), Magnesium Chloride (Anhydrous) 1 mM (0.095 g/L), Calcium Chloride 2 mM (0.222 g/L) HEPES 10 mM (2.38 g/L) in water.
Hexyl Dye Solution (2× concentration): • Bath1 Buffer containing 0.5% β-cyclodextrin (made fresh prior to each use, Sigma #C4767), 8 μM CC2-DMPE and 2 μM DiSBAC6(3). The solution was made by adding 10% Pluronic F127 stock equal to combined volumes of CC2-DMPE and DiSBAC6(3). The order of preparation was first mix Pluronic and CC2-DMPE, then add DiSBAC6(3), then while vortexing add Bath1/β-Cyclodextrin.
Compound Loading Buffer (2×concentration): Na/TMA Cl Bath1 Buffer containing HS (omitted in experiments run in the absence of human serum (HS)) 50%, VABSC-1 1 mM, BSA 0.2 mg/ml (in Bath-1), KCl 9 mM, DMSO 0.75%.
Assay Protocol (7 Key Steps): • 1) To reach the final concentration in each well, 400 nL of each compound was pre-spotted (in neat DMSO) into polypropylene compound plates at 250×desired final concentration from an intermediate stock concentration of 0.075 mM, in an 11 point dose response, 3-fold dilution, resulting in a top dose of 300 nM final concentration in the cell plate. Vehicle control (neat DMSO), and positive control (an established Nav1.8 inhibitor, 25 μM final in assay in DMSO) were added manually to the outermost columns of each plate respectively. The compound plate was backfilled with 45 μL per well of Compound Loading Buffer resulting in a 250 fold dilution of compound following a 1:1 transfer of compound into the cell plate (see Step 6). Final DMSO concentration for all wells in the assay was 0.625% (0.75% DMSO was supplemented to the Compound Loading Buffer for a final DMSO concentration of 0.625%). […]
In general, IC50 refers to the concentration that gives 50% inhibition. `[2H]c1cc([C@H]2[C@H](C(=O)Nc3ccnc(C(N)=O)c3)O[C@@](C)(C(F)(F)F)[C@H]2C)c(OC)c(F)c1F` [Compound 148, 4-[[(2R,3S,4S,5R)-3-(5-deuterio-3,4-difluoro-2-methoxy-phenyl)-4,5-dimethyl-5-(trifluoromethyl)tetrahydrofuran-2-carbonyl]amino]pyridine-2-carboxamide] had an IC50 of under 10 nM.

The same assay, now with this note: in the Absence of Human Serum in the E-VIPR Assay; read-out: IC50.
Consider `COc1c([C@@H]2[C@@H](C(=O)Nc3ccnc(C(N)=O)c3)O[C@](C)(C(F)(F)F)[C@@H]2C)cccc1C(F)(F)F` (single isomer, unassigned) [compound 43], for which the IC50 was in the range of 100 to 1000 nM.

With `COc1c([C@H]2[C@H](C(=O)Nc3cncc(C(N)=O)c3)O[C@@](C)(C(F)(F)F)[C@H]2C)ccc(F)c1F` [Compound 118, 5-[[(2R,3S,4S,5R)-3-(3,4-difluoro-2-methoxy-phenyl)-4,5-dimethyl-5-(trifluoromethyl)tetrahydrofuran-2-carbonyl]amino]pyridine-3-carboxamide], the IC50 was under 10 nM.

Regarding `COc1c([C@H]2[C@H](C(=O)Nc3ccc(F)c(C(N)=O)c3)O[C@@](C)(C(F)(F)F)[C@H]2C)ccc(F)c1F` [Compound 123, (2R,3S,4S,5R)-N-(3-carbamoyl-4-fluoro-phenyl)-3-(3,4-difluoro-2-methoxy-phenyl)-4,5-dimethyl-5-(trifluoromethyl)tetrahydrofuran-2-carboxamide], the IC50 was under 10 nM.

Turning to `COc1cc(C(F)(F)F)ncc1[C@H]1[C@H](C(=O)Nc2ccnc(C(N)=O)c2)O[C@@](C)(C(F)(F)F)[C@H]1C` (racemic) [compound 139], the IC50 is over 1000 nM.

The same assay, now with this note: in the Presence of Human Serum in the E-VIPR Assay.
Take `[2H]C([2H])([2H])Oc1c([C@H]2[C@H](C(=O)Nc3ccnc(C(N)=O)c3)O[C@@](C)(C(F)(F)F)[C@H]2C)ccc(F)c1F` [compound 26]: the IC50 was under 10 nM.

As to `COc1c([C@@H]2[C@@H](C(=O)Nc3ccnc(C(N)=O)c3)O[C@@](C)(C(F)(F)F)[C@H]2C)ccc(F)c1F` (racemic) [Compound 34, rac-(2S,3R,4S,5R)-4-[[3-(3,4-difluoro-2-methoxy-phenyl)-4,5-dimethyl-5-(trifluoromethyl)tetrahydrofuran-2-carbonyl]amino]pyridine-2-carboxamide], the 50% inhibitory concentration (IC50) is over 1000 nM.

Staying with this assay, now noted: in the Presence of Human Serum in the E-VIPR Assay; read-out: IC50.
Consider `COc1c([C@@H]2[C@@H](C(=O)Nc3ccnc(C(N)=O)c3)OC(C)(C)[C@@H]2C)ccc(F)c1F` (single isomer, unassigned) [Compound 106], for which the concentration for half-maximal inhibition (IC50) is over 1000 nM.

Turning to `CNC(=O)c1cc(NC(=O)[C@H]2O[C@@](C)(C(F)(F)F)C[C@@H]2c2ccc(F)c(Cl)c2OC)ccn1` (single isomer, unassigned) [Compound 61], the IC50 was 100 to 1000 nM.

Consider `COc1c([C@H]2C[C@](C)(C(C)(F)F)O[C@@H]2C(=O)Nc2ccnc(C(N)=O)c2)ccc(F)c1F` (single isomer, unassigned) [Compound 87], for which the IC50 fell in the range of 100 to 1000 nM.

Take `COc1cc(F)ccc1[C@H]1[C@H](C(=O)Nc2ccnc(C(N)=O)c2)O[C@](C)(C(F)(F)F)[C@H]1C` (single isomer, unassigned) [Compound 40]: the IC50 is over 1000 nM.

In the case of `COc1cc(F)ccc1[C@@H]1C[C@](C)(C(F)(F)F)O[C@H]1C(=O)Nc1ccnc(C(N)=O)c1` (stereo in doubt) [Compound 68, rel-(2R,3S,5R)-4-[[3-(4-fluoro-2-methoxy-phenyl)-5-methyl-5-(trifluoromethyl)tetrahydrofuran-2-carbonyl]amino]pyridine-2-carboxamide], the IC50 was in the range of 10 to 100 nM.

`COc1cc(F)ccc1[C@@H]1[C@@H](C)[C@@](C)(C(F)(F)F)O[C@H]1C(=O)Nc1ccnc(C(N)=O)c1` (single isomer, unassigned) [Compound 36]: the half-inhibitory concentration (IC50) is over 1000 nM.

For the molecule `C[C@@H]1[C@H](c2ccc(F)c(F)c2)[C@@H](C(=O)Nc2ccnc(C(N)=O)c2)O[C@]1(C)C(F)(F)F` (single isomer, unassigned) [Compound 90], the IC50 is over 1000 nM.

As to `COc1c([C@@H]2C[C@](C)(C(F)(F)F)O[C@H]2C(=O)Nc2cc[n+]([O-])c(C(N)=O)c2)ccc(F)c1F` (relative stereo) [Compound 54, rel-(2R,3S,5R)-4-[[3-(3,4-difluoro-2-methoxy-phenyl)-5-methyl-5-(trifluoromethyl)tetrahydrofuran-2-carbonyl]amino]-1-oxido-pyridin-1-ium-2-carboxamide], the IC50 was 100 to 1000 nM.

As to `COc1c([C@H]2C[C@@](C)(C(F)(F)F)O[C@@H]2C(=O)Nc2ccnc(C(N)=O)c2)ccc(F)c1Cl` (relative stereo) [Compound 22, rel-(2R,3S,5R)-4-[[3-(3-chloro-4-fluoro-2-methoxy-phenyl)-5-methyl-5-(trifluoromethyl)tetrahydrofuran-2-carbonyl]amino]pyridine-2-carboxamide], the concentration for half-maximal inhibition (IC50) was in the range of 10 to 100 nM.

With `C[C@]1(C(F)(F)F)C[C@@H](c2ccc(F)cc2OC(F)F)[C@H](C(=O)Nc2ccnc(C(N)=O)c2)O1` [compound 74], the IC50 was in the range of 10 to 100 nM.

With `C[C@@H]1[C@H](c2ccc(F)cc2OC(F)F)[C@@H](C(=O)Nc2ccc(F)c(C(N)=O)c2)O[C@]1(C)C(F)(F)F` (single isomer, unassigned) [Compound 31], the IC50 is over 1000 nM.

Take `COc1c([C@@H]2[C@H](C)[C@H](C(F)(F)F)O[C@H]2C(=O)Nc2ccnc(C(N)=O)c2)ccc(F)c1F` (relative stereo) [Compound 24, rel-(2R,3S,4S,5R)-4-[[3-(3,4-difluoro-2-methoxy-phenyl)-4-methyl-5-(trifluoromethyl)tetrahydrofuran-2-carbonyl]amino]pyridine-2-carboxamide]: the half-maximal inhibitory concentration (IC50) was over 1000 nM.

Consider `CNC(=O)c1cc(NC(=O)[C@@H]2O[C@@](C)(C(F)(F)F)C[C@H]2c2ccc(F)c(Cl)c2OC)ccn1` (single isomer, unassigned) [Compound 60], for which the IC50 was 10 to 100 nM.

Turning to `COc1c([C@@H]2[C@@H](C)[C@@](C)(C(F)F)O[C@H]2C(=O)Nc2ccnc(C(N)=O)c2)ccc(F)c1F` (stereo in doubt) [Compound 96, rel-(2R,3S,4R,5S)-4-[[3-(3,4-difluoro-2-methoxy-phenyl)-5-(difluoromethyl)-4,5-dimethyl-tetrahydrofuran-2-carbonyl]amino]pyridine-2-carboxamide], the IC50 is over 1000 nM.

On to `CC(C)Oc1c([C@@H]2[C@@H](C(=O)Nc3ccnc(C(N)=O)c3)O[C@](C)(C(F)(F)F)[C@@H]2C)ccc(F)c1F` (single isomer, unassigned) [Compound 88], for which the IC50 was over 1000 nM.

Regarding `COc1c([C@H]2[C@H](C(=O)Nc3ccnc(C(N)=O)c3)O[C@@](C)(C(F)F)[C@H]2C)ccc(F)c1F` (stereo in doubt) [Compound 99, rel-(2R,3S,4S,5R)-4-[[3-(3,4-difluoro-2-methoxy-phenyl)-5-(difluoromethyl)-4,5-dimethyl-tetrahydrofuran-2-carbonyl]amino]pyridine-2-carboxamide], the IC50 was over 1000 nM.
